Test results taken from patent US20160074373A1, “METHODS AND COMPOSITIONS FOR INHIBITING HUMAN COPPER TRAFFICKING PROTEINS ATOX1 AND CCS” (SHANGHAI INSTITUTE OF MATERIA MEDICA, CHINESE ACADEMY OF …, priority 2013, published 2016).
“And” between values parts separate entries of the source, which are not always exact repeats. Equal entries are not always repeated.

How the values were obtained:
[1] = test system: Atox1-WD4 interaction (eCALWY3 probe); assay: eCALWY3 FRET assay of Atox1-WD4 interaction; assay type: biochemical, human; settings: for Fluorescence Intensity Ratio (Citrine/Cerulean): 100 μM compound added; for Recover %: 100 μM compound, recovery of FRET ratio towards eCALWY3 only
Description: FRET for the eCALWY3 was performed in 150 mM HEPES, 100 mM NaCl, 1 mM DTT and 10% glycerol (pH 7.1). Zn^2+ titration was done by mixing 0.9 mM of Zn^2+ from a slightly acidic stock solution of ZnCl2 with buffering systems consisting of 1 mM DHPTA. The effects of varying concentrations of the small molecules were evaluated. Fluorescence spectra and emission anisotropy were recorded on a Varian Cary Eclipse spectrometer.

[2] = test system: human PIG1 cell and human dermal fibroblast cell; settings: for viability of normal cells: 72 hours, highest concentration tested 10 μM
[3] = test system: Lung cancer H1299 cell, Head and neck cancer 212LN cell, Breast cancer MB231 cell; assay: Cancer cell viability / proliferation; settings: for cell death in cancer cells: H1299, 212LN, MB231, increasing doses
[4] = test system: tumor growth; settings: TM-induced copper deficiency; cited from earlier work
[5] = test system: AMPK phosphorylation and ACC1 phosphorylation; assay: Western blot of AMPK and ACC1 phosphorylation; assay type: cell-based; settings: for rescue of AMPK and ACC1 phosphorylation increased by compound 50: co-treatment with compound 50
[6] = test system: H1299 cells; assay: ROS production (DCFH-DA); assay type: cell-based
Description: (§1) Cells were treated with DMSO and DC_AC50 for 12 h and ROS generation was detected with DCFH-DA. Cells were incubated with 10 μM of DCFH-DA for 30 min at 37° C., washed twice with PBS, and immediately analyzed by a FACScan flow cytometer. The antioxidant NAC was treated with 3 mM concentration.

[7] = test system: K562 cells; assay: ROS production (DCFH-DA); assay type: cell-based
Description: as §1

[8] = test system: H1299 cancer cells; assay: 8-OHdG levels by triple quadrupole mass spectrometry; assay type: cell-based
Text: FIG. 20A illustrates 8-OHdG levels in H1299 cancer cells determined by triple quadrupole mass spectrometry analysis. […] .

[9] = test system: K562 cancer cells; assay: as above; assay type: cell-based
Text: FIG. 20B illustrates 8-OHdG levels in K562 cancer cells determined by triple quadrupole mass spectrometry analysis. […] .

[10] = test system: cell proliferation; assay: Rescue of cell proliferation inhibition induced by compound 50; assay type: cell-based; settings: co-treatment with compound 50
[11] = molecular target: T1, human CCS (hCCS) (Homo sapiens, UniProt O14618); assay: Intrinsic fluorescence Kd measurement; assay type: binding; settings: intrinsic tryptophan fluorescence
T1 construct: 6-His (cleaved yes); made in house; host or cells: E. coli BL21 (pET28a)
T1 sequence (O14618 1-274): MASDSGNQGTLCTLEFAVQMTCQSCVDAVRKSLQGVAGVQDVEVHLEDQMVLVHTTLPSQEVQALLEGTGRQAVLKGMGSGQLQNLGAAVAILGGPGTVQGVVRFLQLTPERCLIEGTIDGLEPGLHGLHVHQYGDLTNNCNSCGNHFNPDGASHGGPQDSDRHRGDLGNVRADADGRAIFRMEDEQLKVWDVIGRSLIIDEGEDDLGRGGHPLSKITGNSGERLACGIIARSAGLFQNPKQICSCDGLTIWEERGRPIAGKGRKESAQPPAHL
Description: Based on this similarity, the intrinsic fluorescence of tyrosine for Atox1 and WD4 and tryptophan for hCCS upon addition of small molecules was monitored.
The binding assay was performed in an […]. […] The Atox, WD4 domain and hCCS (1 μM) were performed in 50 mM HEPES, 200 mM NaCl, 1 mM DTT (pH 7.1). […] Following this fluorescence results, the Kds of the small molecules was calculated.

[12] = Description: An in vivo small molecule treatment experiment was performed to further test the efficacy of these compounds.
[13] = test system: H1299 cells; assay: 14C-lipid synthesis from 14C-glucose; assay type: cell-based
[14] = test system: K562 cells; assay: K562 xenograft; settings: 100 mg/kg/day i.p. for 21 days vs vehicle control
[15] = test system: H1299 cells; assay: H1299 xenograft; settings: 100 mg/kg/day i.p. for 21 days vs vehicle control
[16] = test system: H1299 cells; assay: Lactate production
[17] = test system: SOD activity in H1299 cells; assay: SOD activity assay; settings: 48 h treatment
[18] = test system: SOD activity in K562 cells; assay: SOD activity assay; settings: 48 h treatment
[19] = test system: H1299 cells; assay: Oxygen consumption rate; settings: in the presence or absence of oligomycin
[20] = test system: H1299 cancer cells; assay: Cell cycle arrest assay
[21] = test system: K562 cancer cells; assay: Cell cycle arrest assay
[22] = test system: H1299 cells; assay: Glucose utilization assay
[23] = test system: H1299 cells; assay: Intracellular ATP measurement
[24] = test system: K562 cells; assay: Intracellular ATP measurement
[25] = test system: H1299 cells; assay: Apoptosis and caspase-3 activity
[26] = test system: H1299 cells; assay: 14C-RNA synthesis from 14C-glucose
[27] = test system: cytochrome c oxidase (CCO) in H1299 cells; assay: Cytochrome c oxidase activity assay; settings: compared to the control
[28] = test system: cytochrome c oxidase (CCO) in K562 cells; assay: Cytochrome c oxidase activity assay; settings: compared to the control
[29] = test system: SOD1 and SOD2; assay: Western blot of SOD1 and SOD2 levels; settings: H1299 and K562 cells
[30] = test system: HeLa cells; assay: Live cell copper(I) probe imaging of copper uptake; settings: 50 μM, added 10 min after CuSO4 (150 μM)

For `Cc1cc(NC(=O)c2sc3nc(-c4ccccc4)cc(C(F)(F)F)c3c2N)no1` [Compound 71, 3-amino-N-(5-methylisoxazol-3-yl)-6-phenyl-4-(trifluoromethyl)thieno[2,3-b]pyridine-2-carboxamide], the “Fluorescence Intensity Ratio (Citrine/Cerulean)” value [1] was “eCALWY3 only: 2.25 100 μM compound added: 1.86”, the Recover % [1] was 83% and the “viability of normal cells” value [2] was “toxic to normal cells”.

With `Nc1c(C(=O)NCC(c2ccccc2)c2ccccc2)sc2nc(-c3ccncc3)cc(C(F)(F)F)c12` [Compound 30] the “Fluorescence Intensity Ratio (Citrine/Cerulean)” value [1] was “eCALWY3 only: 2.27 100 μM compound added: 1.53”, the Recover % [1] was 67% and the “viability of normal cells” value [2] was “not harmful”. For the same molecule, the “cell death in cancer cells” value [3] was “induce cell death”.

For `[SH-].[SH-].[S]=[Mo]=[S]` [TM, tetrathiomolybdate], the tumor growth [4] is given as “significantly inhibited tumor growth”.

In the case of `CC(=O)N[C@@H](CS)C(=O)O` [NAC, N-acetyl-L-cysteine, reference compound], the “rescue of AMPK and ACC1 phosphorylation increased by compound 50” value [5] is reported as “could not be rescued”, the “rescue of cellular ROS levels increased by compound 50” value ([6]; co-treatment with compound 50) is reported as “almost completely rescued” and the “rescue of cellular ROS levels increased by compound 50” value ([7]; co-treatment with compound 50) is reported as “almost completely rescued”. For the same molecule, the “rescue of 8-OHdG levels increased by compound 50” value ([8]; NAC 3 mM) was “rescued”, the “rescue of 8-OHdG levels increased by compound 50” value ([9]; NAC 3 mM) was “rescued” and the “rescue of cell proliferation inhibited by compound 50” value [10] was “partially rescued”.

In the case of `COc1cccc(-c2ccc3c(N)c(C(=O)Nc4cc(OC)ccc4Cl)sc3n2)c1` [Compound 49, 3-amino-N-(2-chloro-5-methoxyphenyl)-6-(3-methoxyphenyl)thieno[2,3-b]pyridine-2-carboxamide], the “Fluorescence Intensity Ratio (Citrine/Cerulean)” value [1] is reported as “eCALWY3 only: 2.24 100 μM compound added: 1.89”, the Recover % [1] is reported as 84% and the “viability of normal cells” value [2] is reported as “not harmful”. The “cell death in cancer cells” value [3] was “induce cell death”.

With `Nc1c(C(=O)Nc2c(F)cc(F)cc2Br)sc2nc3c(cc12)CCC3` [Compound 50, 3-amino-N-(2-bromo-4,6-difluorophenyl)-6,7-dihydro-5H-cyclopenta[b]thieno[3,2-e]pyridine-2-carboxamide] the Kd [11] was 8 µM and ~8.1 µM, the GRAN ([12]; mouse, in vivo, 100 mg/kg/day) was 1.58 ± 1.4 ×10^3/μL and the HCT ([12]; mouse, in vivo, 100 mg/kg/day) was 30.85 ± 4.879%. The HGB ([12]; mouse, in vivo, 100 mg/kg/day) was 7.45 ± 1.768 g/dL, the LYM ([12]; mouse, in vivo, 100 mg/kg/day) was 4.74 ± 1.556 ×10^3/μL and the MCH ([12]; mouse, in vivo, 100 mg/kg/day) was 13.6 ± 1.273 pg. The MCHC ([12]; mouse, in vivo, 100 mg/kg/day) was 24 ± 1.98 g/dL, the MCV ([12]; mouse, in vivo, 100 mg/kg/day) was 56.75 ± 0.919 fL and the MONO ([12]; mouse, in vivo, 100 mg/kg/day) was 0.44 ± 0.17 ×10^3/μL. The PLT ([12]; mouse, in vivo, 100 mg/kg/day) was 742 ± 684.5 ×10^3/μL, the RBC ([12]; mouse, in vivo, 100 mg/kg/day) was 5.43 ± 0.778 ×10^6/μL and the RDWa ([12]; mouse, in vivo, 100 mg/kg/day) was 21.5 ± 4.667%. For the same molecule, the WBC ([12]; mouse, in vivo, 100 mg/kg/day) was 6.89 ± 3.125 ×10^3/μL, the MPV ([12]; nude mice, 100 mg/kg/day, mean) was 6.35 ± 0.495 fL and the well-tolerated dose ([12]; nude, mouse, in vivo, ip, 4 weeks) was 100 mg/kg/day. The lipid synthesis [13] was “significant decreases”, the ACC1 phosphorylation ([5]; H1299 and K562 cells) was “increased” and the AMPK phosphorylation ([5]; H1299 and K562 cells) was “increased”. For the same molecule, the “cellular ROS level” value ([6]; 10 μM) was “increased cellular ROS level”, the “cellular ROS level” value ([7]; 10 μM) was “increased cellular ROS level” and the 8-OHdG levels [8] was “increased”. For the same molecule, the 8-OHdG levels [9] was “increased”, the “effect on noncancerous cell lines” value [2] was “minimum effects” and the “viability of normal cells” value [2] was “not harmful”. The “tumor growth and size” value [14] was “significantly decreased tumor growth and size”, the “tumor growth and size” value [15] was “significantly decreased tumor growth and size” and the “cellular level of lactate” value [16] was “no noticeable changes”. The SOD activity [17] was “noticeably decreased”, the SOD activity [18] was “noticeably decreased” and the oxygen consumption rate [19] was “significantly decreased”. For the same molecule, the cell cycle [20] was “G2/M phase cell cycle arrest”, the cell cycle [21] was “G2/M phase cell cycle arrest” and the glucose uptake [22] was “no noticeable changes”. The “cellular ATP levels” value [23] was “significantly reduced”, the “cellular ATP levels” value [24] was “significantly reduced” and the apoptosis [25] was “didn't noticeably induce apoptosis”. For the same molecule, the caspase-3 activity [25] was “does not noticeably affect”, the “glucose-dependent RNA synthesis” value [26] was “no noticeable changes” and the CCO activity [27] was “significantly lowered”. For the same molecule, the CCO activity [28] was “significantly lowered”, the SOD2 expression level [29] was “Reduced expression” and the “cell death in cancer cells” value [3] was “induce cell death”. The cancer cell proliferation ([3]; dose-dependent) was “high efficiency in inhibiting cancer cell proliferation” and the copper uptake [30] was “reduced copper uptake”.

With `c1cc(-c2cnn3cc(-c4ccc(OCCN5CCCCC5)cc4)cnc23)ccn1` [compound C, reference compound] the “rescue of lipid synthesis decreased by compound 50” value ([13]; co-treatment with compound 50) was “recovered lipid synthesis”, the “rescue of AMPK and ACC1 phosphorylation increased by compound 50” value [5] was “almost completely reversed” and the “rescue of cell proliferation inhibited by compound 50” value [10] was “partially rescued”.

For `CCN1CCc2nc3sc(C(=O)Nc4ccccc4OC(F)(F)F)c(N)c3cc2C1` [Compound 2, 3-amino-6-ethyl-N-(2-(trifluoromethoxy)phenyl)-5,6,7,8-tetrahydro-thieno[2,3-b][1,6]naphthyridine-2-carboxamide], the “Fluorescence Intensity Ratio (Citrine/Cerulean)” value [1] was “eCALWY3 only: 3.54 100 μM compound added: 3.05”, the Recover % [1] was 86% and the “viability of normal cells” value [2] was “not harmful”. The “cell death in cancer cells” value [3] was “induce cell death”.

With `COc1ccc2cc3c(N)c(C(=O)Nc4ccc(C(C)=O)cc4)sc3nc2c1` [Compound 61, N-(4-acetylphenyl)-3-amino-7-methoxythieno[2,3-b]quinoline-2-carboxamide] the “Fluorescence Intensity Ratio (Citrine/Cerulean)” value [1] was “eCALWY3 only: 3.68 100 μM compound added: 2.72”, the Recover % [1] was 74% and the “viability of normal cells” value [2] was “not harmful”. For the same molecule, the “cell death in cancer cells” value [3] was “induce cell death”.
